Source: PMC6097915 (ACS chemical biology, 2018)
In brackets after ≈: the same amount, converted by molar mass. Ends that are not written are not given here.

System: WT MG1655 E. coli
Format: cell-based
Settings: 6-hr period, aerated EZRDM medium, 30°C, by OD, successive two-fold dilutions in 96 well plates

| Compound | MIC (minimum inhibitory concentration) |
| --- | --- |
| CC[C@H](C)[C@H](NC(=O)[C@H](CCCCN)NC(=O)[C@H](CCC(=O)O)NC(=O)[C@H](CCCCN)NC(=O)[C@H](CO)NC(=O)[C@H](CCCCN)NC(=O)[C@H](CCCNC(=N)N)NC(=O)[C@H](Cc1ccccc1)NC(=O)[C@H](Cc1ccccc1)NC(=O)[C@H](CC(=O)O)NC(=O)CNC(=O)[C@H](CC(C)C)NC(=O)[C@@H](N)CC(C)C)C(=O)NCC(=O)N[C@@H](CCCCN)C(=O)N[C@@H](CCC(=O)O)C(=O)N[C@@H](Cc1ccccc1)C(=O)N[C@@H](CCCCN)C(=O)N[C@@H](CCCNC(=N)N)C(=O)N[C@H](C(=O)N[C@H](C(=O)N[C@@H](CCC(N)=O)C(=O)N[C@@H](CCCNC(=N)N)C(=O)N[C@H](C(=O)N[C@@H](CCCCN)C(=O)N[C@@H](CC(=O)O)C(=O)N[C@@H](Cc1ccccc1)C(=O)N[C@@H](CC(C)C)C(=O)N[C@@H](CCCNC(=N)N)C(=O)N[C@@H](CC(N)=O)C(=O)N[C@@H](CC(C)C)C(=O)N[C@H](C(=O)N1CCC[C@H]1C(=O)N[C@@H](CCCNC(=N)N)C(=O)N[C@H](C(=O)N[C@@H](CCC(=O)O)C(=O)N[C@@H](CO)C(=O)O)[C@@H](C)O)C(C)C)[C@@H](C)CC)C(C)C)[C@@H](C)CC [LL-37] | 4 µM (≈ 18 µg/mL) |
| KWKLFKKIEKVGQNIRDGII-KAGPAVAVVGQATQIAK-NH2 [Cecropin A] | 0.9 µM |
| KWKLFKKIGAVLKVL-NH2 [CM15] | 5 µM |
